Test system: horses
Experiment: Coagulation effects study, IV BID or TID for 9 days: clinical signs
Type: in vivo
Description: The purpose of this study was to evaluate the effects of metamizole on coagulation parameters and pharmacokinetic parameters when administered intravenously to horses for 9 days at doses of 0 mg/kg (0×), 30 mg/kg (1×), 60 mg/kg (2×), and 90 mg/kg (3×) of body weight. Doses of 0×, 1×, 2×, and 3× were administered twice daily (BID), every 12 hours±120 min. Doses of 1× and 2× were administered three times daily (TID), every 8 hours±120 min. Metamizole plasma concentrations were assessed in the 1×BID, 3×BID, 1×TID, and 2×TID treatments groups to evaluate for evidence of accumulation.
The investigational drug was a sterile injectable formulation of dipyrone (Zimeta®, Corden Pharma, Caponago, Italy) (500 mg/mL) in 100 mL glass bottles. The placebo was sterile injectable saline (0.9% Saline, Nova-Tech Inc, Grand Island, NE) (0.9% sodium chloride) in 500 mL plastic bottles labeled for veterinary use. Dipyrone treatment groups were 30 mg/kg/dose (1×) administered twice daily (BID), 1× administered three times daily (TID), 60 mg/kg/dose (2×) BID, 2×TID, and 90 mg/kg/dose (3×) BID. Placebo treatment group, (0×) BID, were saline administered at a volume to match the 1× dipyrone group. The dose was calculated based on body weight and administered for nine consecutive days (Days 1-9). Due to the large volume of the injection at the higher test intervals, treatment was administered via indwelling intravenous catheters. Intravenous catheters were placed using standard techniques. Horses were sedated with xylazine (XylaMed™, VetOne, MWI, Boise, Id.) (0.6 mg/kg, IV) and the skin was desensitized with subcutaneous injection of lidocaine (Lidocaine 2%, VetOne, MWI, Boise, Id.). Intravenous catheters were replaced at the discretion of the study director and were maintained with heparinized saline flush prior to, and following, dose administration.
Horses were acclimated to the facility for 14 days prior to start of the treatment phase. […] On Day −1, thirty-two horses were randomized by the study statistician and moved to their assigned pens. On Day −1 (baseline), Day 4, and Day 10 horses had blood collected for a coagulation panel. A physical exam was performed prior to study start and on Day 10.

[1] = 1X BID, 30 mg/kg IV twice daily, n = 6
[2] = 1X TID, 30 mg/kg IV three times daily, n = 4
[3] = 2X BID, 60 mg/kg IV twice daily, n = 6
[4] = 2X TID, 60 mg/kg IV three times daily, n = 6
[5] = 3X BID, 90 mg/kg IV twice daily, n = 6

Cc1c(N(C)CS(=O)(=O)O)c(=O)n(-c2ccccc2)n1C [dipyrone, [(2,3-dihydro-1,5-dimethyl-3-oxo-2-phenyl-1H-pyrazol-4-yl)methylamino] methanesulfonic acid]
Depression, number of horses [1]: 0 | Dermatitis, number of horses [1]: 0 | Minor gastrointestinal signs or inappetence, number of horses [1]: 2 | Minor respiratory signs (nasal discharge and or cough), number of horses [1]: 1 | Ocular discharge, number of horses [1]: 0 | Phlebitis and other catheter-related changes to jugular vein, number of horses [1]: 2 | Suture site abscesses, number of horses [1]: 1 | Depression, number of horses [2]: 0 | Dermatitis, number of horses [2]: 0 | Minor gastrointestinal signs or inappetence, number of horses [2]: 1 | Minor respiratory signs (nasal discharge and or cough), number of horses [2]: 0 | Ocular discharge, number of horses [2]: 0 | Phlebitis and other catheter-related changes to jugular vein, number of horses [2]: 1 | Suture site abscesses, number of horses [2]: 0 | Depression, number of horses [3]: 0 | Dermatitis, number of horses [3]: 0 | Minor gastrointestinal signs or inappetence, number of horses [3]: 2 | Minor respiratory signs (nasal discharge and or cough), number of horses [3]: 0 | Ocular discharge, number of horses [3]: 1 | Phlebitis and other catheter-related changes to jugular vein, number of horses [3]: 3 | Suture site abscesses, number of horses [3]: 0 | Depression, number of horses [4]: 1 | Dermatitis, number of horses [4]: 0 | Minor gastrointestinal signs or inappetence, number of horses [4]: 2 | Minor respiratory signs (nasal discharge and or cough), number of horses [4]: 0 | Ocular discharge, number of horses [4]: 0 | Phlebitis and other catheter-related changes to jugular vein, number of horses [4]: 2 | Suture site abscesses, number of horses [4]: 1 | Depression, number of horses [5]: 0 | Dermatitis, number of horses [5]: 1 | Minor gastrointestinal signs or inappetence, number of horses [5]: 1 | Minor respiratory signs (nasal discharge and or cough), number of horses [5]: 1 | Ocular discharge, number of horses [5]: 0 | Phlebitis and other catheter-related changes to jugular vein, number of horses [5]: 3 | Suture site abscesses, number of horses [5]: 0 | Abnormal clinical signs in the treatment period (all treatment groups (30-90 mg/kg IV BID or TID, 9 days)): none were considered treatment related

— US20190374509A1, “Methods of Using Metamizole for Treatment of Pyrexia in Equines” (Kindred Biosciences, Inc., priority 2018, published 2019)
